Values quoted from earlier work, collected in patent US11471437B2, “Compositions and methods for treating cannabinoid hyperemesis syndrome with a cannabinoid receptor antagonist” (Opiant Pharmaceuticals, Inc., priority 2019, dated 2022).

What was measured:
CB1 receptor [1] = target: T1, CB1 receptor (Homo sapiens, UniProt P21554); parameters: host or cells: human volunteers (in vivo); conditions: oral administration, normal volunteers; cited from earlier work
CB1 receptor [2] = target: T1, CB1 receptor; conditions: cited from earlier work
[3] = cited from earlier work
[4] = oral formulation for obesity and smoking cessation; cited from earlier work

T1 sequence (P21554 whole entry): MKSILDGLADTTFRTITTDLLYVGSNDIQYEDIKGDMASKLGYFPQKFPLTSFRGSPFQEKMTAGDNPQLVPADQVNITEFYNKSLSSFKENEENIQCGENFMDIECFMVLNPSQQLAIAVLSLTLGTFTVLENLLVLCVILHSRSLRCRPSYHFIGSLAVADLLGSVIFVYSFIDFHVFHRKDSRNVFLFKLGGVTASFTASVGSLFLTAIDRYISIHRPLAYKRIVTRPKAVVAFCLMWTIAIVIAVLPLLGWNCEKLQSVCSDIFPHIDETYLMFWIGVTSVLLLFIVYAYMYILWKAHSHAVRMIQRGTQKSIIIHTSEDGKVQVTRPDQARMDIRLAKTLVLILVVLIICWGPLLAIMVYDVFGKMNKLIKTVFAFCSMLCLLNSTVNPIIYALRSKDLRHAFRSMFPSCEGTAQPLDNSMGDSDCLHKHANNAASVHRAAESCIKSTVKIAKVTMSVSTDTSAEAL

Compound	Prevention (block) of pharmacological effects of smoked or inhaled THC (CB1 receptor [1])	Potency and selectivity for CB1 (CB1 receptor [2])	log P [3]	Side effects [4]
CCc1c(C(=O)NN2CCCCC2)nn(-c2ccc(Cl)cc2Cl)c1-c1ccc(Br)cc1 [surinabant]	can prevent (that is, block) some of the pharmacological effects of smoked or inhaled THC			
CS(=O)(=O)N(c1cc(F)cc(F)c1)C1CN(C(c2ccc(Cl)cc2)c2ccc(Cl)cc2)C1 (racemic) [drinabant, (±)-N-{1-[bis(4-chlorophenyl)methyl]-3-azetidinyl}-N-(3,5-difluorophenyl)methanesulfonamide]	can prevent (that is, block) some of the pharmacological effects of smoked or inhaled THC	potent and selective for CB1	high	
Cc1c(C(=O)NN2CCCCC2)nn(-c2ccc(Cl)cc2Cl)c1-c1ccc(Cl)cc1 [Rimonabant, 5-(4-chlorophenyl)-1-(2,4-dichloro-phenyl)-4-methyl-N-(piperidin-1-yl)-1H-pyrazole-3-carboxamide]				concerning side effects including psychiatric effects such as depression and mood alterations
